The values that follow are results of earlier work, collected in paper PMC7797166 (Journal of thoracic oncology : official publication of the …, 2020).

Read-outs that look alike come from different tables or passages of the source.

In the data set the test system is T cell. Conditions: ref Li et al[31], cited from earlier work.

HVKITDFGR: the tetramer assay result (HLA-A*31:01) was “positive”.
On to KITDFGRAK, for which the tetramer assay entry (HLA-A*11:01) is recorded as “negative”.
